Measured values published in patent US20250228835A1, “PYRIDINYLOXYPYRIDINES AND RELATED COMPOUNDS AND THEIR USE IN TREATING MEDICAL CONDITIONS” (Rectify Pharmaceuticals, Inc., priority 2024, published 2025).

What follows are compounds tested against T1, ABCD2 WT (Homo sapiens, UniProt Q9UBJ2) (assay: D2 correction dose-response assay: ABCD2 WT HiBit protein expression). Settings: HEK-293/ABCD2 WT cells, 24 hours treatment, HiBit luminescence; class combines EC50 and Mean MaxAct (fold); read-out: ABCD2 WT EC50, Emax.
T1 construct: expressed in transfected cells
T1 sequence (Q9UBJ2 1-740): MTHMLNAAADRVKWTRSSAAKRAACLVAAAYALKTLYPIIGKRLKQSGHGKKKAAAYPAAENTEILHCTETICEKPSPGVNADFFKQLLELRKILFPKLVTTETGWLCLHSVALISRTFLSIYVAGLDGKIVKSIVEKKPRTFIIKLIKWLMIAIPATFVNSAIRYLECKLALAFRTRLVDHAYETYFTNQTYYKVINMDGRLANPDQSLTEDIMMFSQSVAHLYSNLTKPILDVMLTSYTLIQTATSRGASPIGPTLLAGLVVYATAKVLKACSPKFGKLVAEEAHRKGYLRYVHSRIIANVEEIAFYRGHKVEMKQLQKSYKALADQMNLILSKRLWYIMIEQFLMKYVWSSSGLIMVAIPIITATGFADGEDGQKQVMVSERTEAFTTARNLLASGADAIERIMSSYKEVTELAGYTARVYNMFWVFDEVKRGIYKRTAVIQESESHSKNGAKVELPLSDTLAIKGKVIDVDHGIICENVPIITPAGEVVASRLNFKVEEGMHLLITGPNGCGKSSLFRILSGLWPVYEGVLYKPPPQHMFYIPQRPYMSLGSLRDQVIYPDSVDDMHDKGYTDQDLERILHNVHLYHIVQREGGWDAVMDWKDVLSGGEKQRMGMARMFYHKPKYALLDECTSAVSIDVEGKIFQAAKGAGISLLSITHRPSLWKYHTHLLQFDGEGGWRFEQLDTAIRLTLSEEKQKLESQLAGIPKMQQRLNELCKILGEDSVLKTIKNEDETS
Format: cell-based
Method in brief: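 HEK-293 cells stably expressing HiBit-tagged human ABCD2 WT were treated with 11 doses (3-fold dilutions, top final 30 μM, 0.3% DMSO) for 24 h at 37 °C. Expression was measured by HiBit lytic luminescence after 1 h at 25 °C, giving EC50 and Emax.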
Compound Cc1cc(C)c(Oc2nc(-c3cccc(C#N)n3)ccc2NS(C)(=O)=O)c(C)n1 [Compound I-241] has an EC50 of 10 to 25 µM.
Work on CCCS(=O)(=O)Nc1ccc(-c2cncc(C#N)c2)nc1Oc1c(C)cc(C)nc1C [Compound I-242] yielded an EC50 of over 25 µM.
Compound Cc1cc(C)c(Oc2nc(-c3cncc(C#N)c3)ccc2NS(=O)(=O)C2CCC2)c(C)n1 [Compound I-243] has an EC50 of 10 to 25 µM.
Cc1cc(C)c(Oc2nc(N3CCC(C#N)CC3)ccc2NS(C)(=O)=O)c(C)c1 [Compound I-244] was tested, and the EC50 was 10 to 25 µM.
Compound Cc1cc(C)c(Oc2nc(-c3cncc(C#N)c3)ccc2S(=N)(=O)C2CC2)c(C)c1 (stereo not drawn) [Compound I-245] has an EC50 of under 1 µM.
With Cc1cc(C)c(Oc2nc(-c3cncc(Cl)c3)ncc2NS(C)(=O)=O)c(C)n1 [Compound I-246] the EC50 was under 1 µM.
CCS(=O)(=O)Nc1ccc(-c2cncc(C#N)c2)nc1Oc1c(C)cc(C)nc1C [Compound I-247] showed an EC50 of over 25 µM.
For Cc1cc(C)c(Oc2nc(-c3cncc(C#N)c3)ccc2S(=N)(=O)C2CC2)c(C)n1 (stereo not drawn) [Compound I-248], the EC50 was over 25 µM.
Compound Cc1cc(C)c(Oc2nc(-c3cncc(C#N)c3)ccc2S(C)(=N)=O)c(C)n1 (stereo not drawn) [Compound I-249] has an EC50 of 1 to 10 µM.
Compound Cc1cnc(Oc2nc(-c3cncc(C#N)c3)ccc2NS(C)(=O)=O)c(C)c1 [Compound I-250] has an EC50 of over 25 µM.
Cc1cc(C2CC2)nc(C)c1Oc1nc(-c2cncc(C#N)c2)ccc1S(C)(=N)=O (stereo not drawn) [Compound I-251] gave an EC50 of over 25 µM.
Compound Cc1cc(C2CC2)nc(C)c1Oc1nc(-c2cncc(C#N)c2)ccc1NS(=O)(=O)C1CCC1 [Compound I-252] has an EC50 of 1 to 10 µM.
Compound Cc1cc(C)c(Oc2nc(-c3cncc(C#N)c3)ccc2NS(=O)(=O)C2CCC2)c(C)c1 [Compound I-253] has an EC50 of 1 to 10 µM.
Cc1cc(C2CC2)nc(C)c1Oc1nc(-n2cnc(C#N)c2)ccc1NS(C)(=O)=O [Compound I-254] was tested, and the EC50 was under 1 µM.
In the case of Cc1cc(C2CC2)nc(C)c1Oc1nc(-n2ccc(C#N)n2)ccc1NS(C)(=O)=O [Compound I-255], the EC50 is reported as 1 to 10 µM.
In the case of Cc1cc(C2CC2)nc(C)c1Oc1nc(-n2cc(C#N)cn2)ccc1NS(C)(=O)=O [Compound I-256], the EC50 is reported as 1 to 10 µM.
Cc1cc(C)c(Oc2nc(-n3ccc(C#N)n3)ccc2NS(C)(=O)=O)c(C)c1 [Compound I-257] gave an EC50 of 1 to 10 µM.
Cc1cc(C)c(Oc2nc(-c3cncc(C#N)c3)ccc2S(N)(=O)=O)c(C)n1 [Compound I-258] showed an EC50 of 10 to 25 µM.
Cc1cc(C)c(Oc2nc(-c3cncc(C#N)c3)cnc2NS(C)(=O)=O)c(C)n1 [Compound I-259] gave an EC50 of 1 to 10 µM.
With Cc1cc(C)c(Oc2nc(-c3cncc(Cl)c3)cnc2NS(C)(=O)=O)c(C)n1 [Compound I-260] the EC50 was 1 to 10 µM.
Cc1cc(C2CC2)nc(C)c1Oc1nc(-c2cncc(S(C)(=O)=O)c2)ccc1NS(C)(=O)=O [Compound I-263] gave an EC50 of 1 to 10 µM.
For Cc1cc(C2CC2)nc(C)c1Oc1nc(-c2cncc(C#N)c2)ccc1NS(=O)(=O)C1CC1 [Compound I-264], the EC50 was over 25 µM.
CNS(=O)(=O)c1ccc(-c2cncc(C#N)c2)nc1Oc1c(C)cc(C)nc1C [Compound I-265] was tested, and the EC50 was 1 to 10 µM.
Cc1cc(C)c(Oc2nc(-c3cncc(C#N)c3)ccc2NS(=O)(=O)C2CC2)c(C)n1 [Compound I-266] gave an EC50 of over 25 µM.
Cc1cc(C)c(Oc2nc(-c3cncc(C#N)c3)ccc2NS(=O)(=O)C2COC2)c(C)c1 [Compound I-267] showed an EC50 of under 1 µM.
For Cc1cc(C)c(Oc2nc(-c3cncc(C#N)c3)ccc2NS(C)(=O)=O)c(C2CC2)n1 [Compound I-268], the EC50 was over 25 µM.
In the case of Cc1cc(C)c(Oc2nc(-c3ccc(C#N)nc3C)ccc2NS(C)(=O)=O)c(C)n1 [Compound I-269], the EC50 is reported as 1 to 10 µM.
Compound Cc1cc(C)c(Oc2nc(-c3cc(C#N)cnc3C)ccc2NS(C)(=O)=O)c(C)n1 [Compound I-270] has an EC50 of 1 to 10 µM.
Work on Cc1cc(C2CC2)cc(C)c1Oc1nc(-c2cncc(C#N)c2)ccc1NS(C)(=O)=O [Compound I-271] yielded an EC50 of over 25 µM.
Cc1cc(C)c(Oc2nc(-n3cnc(C#N)c3)ccc2N(C)S(C)(=O)=O)c(C)c1 [Compound I-272] was tested, and the EC50 was over 25 µM.
In the case of Cc1cc(C)c(Oc2nc(-n3cnc(C#N)c3)ccc2NS(C)(=O)=O)c(C)c1 [Compound I-273], the EC50 is reported as under 1 µM.
With Cc1cc(C)c(Oc2nc(-n3cc(C#N)cn3)ccc2NS(C)(=O)=O)c(C)c1 [Compound I-274] the EC50 was 1 to 10 µM.
In the case of Cc1cc(C)c(Oc2nc(-c3cncc(C#N)c3)cnc2NS(C)(=O)=O)c(C)c1 [Compound I-275], the EC50 is reported as under 1 µM.
Cc1cc(C)c(Oc2nc(-c3cncc(C#N)c3)ccc2NS(=O)(=O)C(C)C)c(C)n1 [Compound I-276] gave an EC50 of over 25 µM.
For Cc1cc(C)c(Oc2nc(-c3cncc(Cl)c3)cnc2NS(C)(=O)=O)c(C)c1 [Compound I-277], the EC50 was under 1 µM.
Cc1cc(C)c(Oc2nc(-c3cncc(S(C)(=O)=O)c3)ccc2NS(C)(=O)=O)c(C)c1 [Compound I-278] gave an EC50 of 1 to 10 µM.
Cc1cc(C)c(Oc2nc(-c3cncc(C#N)c3)ccc2S(C)(=N)=O)c(C)c1 (stereo not drawn) [Compound I-279] was tested, and the EC50 was 10 to 25 µM.
Cc1cc(C)c(Oc2nc(-c3cncc(C#N)c3)ccc2S(N)(=O)=O)c(C)c1 [Compound I-280] gave an EC50 of under 1 µM.
CNS(=O)(=O)c1ccc(-c2cncc(C#N)c2)nc1Oc1c(C)cc(C)cc1C [Compound I-281] gave an EC50 of under 1 µM.
In the case of Cc1cc(C)c(Oc2nc(-c3cc(Cl)cnc3C)ccc2NS(C)(=O)=O)c(C)n1 [Compound I-282], the EC50 is reported as 1 to 10 µM.
Cc1cc(C)c(Oc2nc(-c3cn(C)nc3C)ccc2NS(C)(=O)=O)c(C)c1 [Compound I-283] showed an EC50 of 1 to 10 µM.
With Cc1cc(C)c(Oc2nc(-c3cncc(C#N)c3)ncc2NS(C)(=O)=O)c(C)n1 [Compound I-284] the EC50 was under 1 µM.
In the case of Cc1cc(C)c(Oc2nc(N3CCN(C(=O)C4CC4)CC3)ccc2S(N)(=O)=O)c(C)c1 [Compound I-285], the EC50 is reported as 10 to 25 µM.
Cc1cc(C2CC2)nc(C2CC2)c1Oc1nc(-c2cncc(C#N)c2)ccc1S(=N)(=O)C1CC1 (stereo not drawn) [Compound I-317] was tested, and the EC50 was 1 to 10 µM.
With Cc1cc(C(F)F)cc(C2CC2)c1Oc1nc(-c2cncc(C#N)c2)ccc1S(=N)(=O)C1CC1 (stereo not drawn) [Compound I-319] the EC50 was 1 to 10 µM.
For Cc1cc(C(F)F)nc(C2CC2)c1Oc1nc(-c2cncc(C#N)c2)ccc1S(=O)(=O)NC1CCOCC1 [Compound I-320], the EC50 was over 25 µM.
Compound Cc1cc(C(F)F)nc(C2CC2)c1Oc1nc(-c2cncc(C#N)c2)ccc1S(=O)(=O)NC1COC1 [Compound I-321] has an EC50 of 1 to 10 µM.
Cc1cc(C2CC2)nc(C2CC2)c1Oc1nc(-c2cncc(C#N)c2)ccc1S(=O)(=O)NC1CCOCC1 [Compound I-322] gave an EC50 of over 25 µM.
Cc1cc(C)c(Oc2[nH]c(-c3cncc(C#N)c3)cc(=O)c2NS(C)(=O)=O)c(C)n1 [Compound I-325] showed an EC50 of 10 to 25 µM.
With Cc1cc(C)c(Oc2nc(-c3cc(C#N)c[nH]c3=O)ccc2NS(C)(=O)=O)c(C)n1 [Compound I-326] the EC50 was over 25 µM.
Compound Cc1cc(C)c(Oc2nc(-c3cncc(C#N)c3)c(O)cc2NS(C)(=O)=O)c(C)n1 [Compound I-327] has an EC50 of under 1 µM.
